Results published in patent US20060093577A1, “Combination anti-viral compositions and methods of use” (priority 2004, published 2006).

Assays:
BVDV [1] = assay: Two-way combination inhibition-of-CPE assay, BVDV-infected MDBK cells, MOI 0.05 (Example 5); assay type: cell-based, bovine viral diarrhea virus; conditions: read-out: EC50 protection of MDBK cells from BVDV-induced cytotoxicity
Protocol: (§1) Each two-way combination was performed twice.
Individual potencies (EC50) of each of the drugs for inhibition of BVDV-induced cytopathic effects in MDBK cells were determined for each combination experiment (see Table 9).

BVDV [2] = assay: Two-way combination inhibition-of-CPE assay, BVDV-infected MDBK cells, MOI 0.01 (MacSynergy, isobologram); assay type: cell-based, bovine viral diarrhea virus; conditions: for EC50: Bovine viral diarrhea virus isolates and strains, MDBK
Protocol: as §1
Initially, as was done in Example 1, individual compound potency (EC50) for inhibition of BVDV-induced cytopathic effects in MDBK cells was determined for each combination experiment (see Table 5). Minimal experiment-to-experiment variability in individual drug potency was observed.
A greater positive percent (synergy) volume is indicative of a synergistic effect. Values less than 25 μM/ml^2% or 25 μM(IU)/ml(well)^2% are insignificant; values between 25 and 50 μM/ml^2% or 25 and 50 μM(IU)/ml(well)^2% are considered minor but significant; values between 50 and 100 μM/ml^2% or μM(IU)/ml(well)^2% indicate moderate synergy that may be indicative of a significant synergistic effect in vivo; and values greater than 100 μM/ml^2% or μM(IU)/ml(well)^2% indicate strong synergy that is likely indicative of a significant synergistic effect in vivo.

BVDV [3] = assay: Plaque reduction assay; assay type: cell-based; conditions: Bovine viral diarrhea virus isolates and strains
Protocol: The BVDV virus stock was serially diluted in phosphate buffered saline (PBS) containing 1-5% horse serum (HS). MDBK cells were grown to confluence in culture dishes and were infected at 37° C. with BVDV at various multiplicity of infection (<1 to >0.001). After 1.5 hours of adsorption, the inoculum was removed. The cell monolayer was overlaid with 0.5% agarose dissolved in cell growth media containing 5% HS with and without test compound(s) (castanospermine, ribavirin, or IFN-α). The dishes were incubated for 3 to 5 days at 37° C. under 5% CO2. The monolayer of MDBK cells was fixed with formaldehyde, stained with crystal violet or methylene blue according to standard methods, and then washed in double distilled water. Following washing, the plates air dried at room temperature. The virus plaques formed in the MDBK cell cultures were quantified by manual counting. The inhibitory activities of test compounds were determined by calculating the percent (%) reduction in plaques as follows: % reduction in plaques=[…].

[4] = CC50, viability of MDBK cells (Example 1); conditions: bovine
Protocol: MDBK cells were seeded into 96-well plates at a density of approximately 2×10^4 cells per well. The cultures were incubated 3-24 hours to permit attachment of the cells to the plates prior to infection and addition of compounds. […] The mean absorbance in each set of triplicate wells was determined. Antiviral activity was measured as MTS conversion relative to the differential between the conversion for cell (non-infected) and viral (non-drug-treated) controls.

[5] = CC50 in plaque reduction assay table (Example 3); assay type: cell-based; conditions: bovine
BVDV strain NADL = assay: Inhibition of BVDV release from MDBK cells; assay type: cell-based; conditions: Bovine viral diarrhea virus isolates and strains, MOI about 0.01, 24 hours
Protocol: The cell cultures were incubated 3-24 hours to allow attachment of the cells to the tissue culture plates prior to infection and addition of compounds. The appropriate number of plaque forming units (PFU) of BVDV strain NADL (ATCC VR-534) diluted in sterile PBS containing 1% HS were added to each well to achieve the desired multiplicity of infection (MOI) (about 0.01). The cells were exposed to the virus at 37° C., 5% CO2 for 1.5 hours, and then washed with PBS. The test compounds, dissolved in cell growth media with 2% HS, were then added to the cells at varying concentrations. The plates were incubated at 37° C., 5% CO2 for 24 hours (one cycle of BVDV replication). The 96-well plates were then centrifuged at low speed to pellet the cells. The supernatant was serially diluted and used to infect a new monolayer of cells in 12-well plates. The cell monolayer was then overlaid with 0.5% agarose dissolved in cell growth media with 5% HS containing (1) castanospermine (Phytex, Australia); (2) ribavirin (Ribavirin, Sigma); (3) IFN-α2b (PBL Biomedical Laboratories, Piscataway, N.J.); or (4) alone (i.e., no added test compound). The treated cells were incubated for 3 to 5 days at 37° C. under 5% CO2, fixed with formaldehyde, stained with crystal violet or methylene blue, washed in double distilled water, and finally air dried at room temperature. Virus plaques formed were quantified by manual counting, and titer was determined.

BVDV [6] = assay: Protection of MDBK cells from BVDV-induced cytotoxicity (MTS/PMS CPE reduction); assay type: cell-based; conditions: Bovine viral diarrhea virus isolates and strains
Protocol: Cell proliferation assays were performed using a non-radioactive cell proliferation MTS/PMS assay (MTS: 3-(4,5-dimethylthiazol-2-yl)-5-(3-carboxymethoxy phenyl)-2-(4-sulfophenyl)-2H-tetrazolium (Promega Corporation, Madison, Wis.); PMS: phenazine methosulfate (Sigma Aldrich, St. Louis, Mo.)). MDBK cells were seeded into 96-well plates at a density of approximately 2×10^4 cells per well. The cultures were incubated 3-24 hours to permit attachment of the cells to the plates prior to infection and addition of compounds. The appropriate number of PFU of BVDV were added to each well to achieve the desired MOI (0.1 or 0.01); the cells were exposed to the virus diluted at the appropriate concentration in phosphate buffered saline (PBS) containing 1% horse serum for 1 to 2 hours. The virus inoculum was then removed and the cells were washed with PBS containing 1% HS. The test compounds, castanospermine, ribavirin, and interferon-α were dissolved in cell growth media with 2% HS and added to the cells at varying concentrations, and then incubated at 37° C. in the presence of 5% CO2 for 3-4 days. Uninfected cells and infected, untreated cells (i.e., without compound) were used as additional controls. After the 3-4 days of incubation, a combined MTS/PMS solution was added into each well assay plate containing 100 μL of cells in culture medium to obtain final concentrations of 333 μg/ml MTS and 25 μM PMS. A spectrophotometer plate reader was used to measure the absorbance at 490 nm after incubation of the 96-well plate for 1 to 4 hours at 37° C. in a humidified, 5% CO2 atmosphere. The mean absorbance in each set of triplicate wells was determined. Antiviral activity was measured as MTS conversion relative to the differential between the conversion for cell (non-infected) and viral (non-drug-treated) controls. The cytopathic effect (CPE) reduction for each concentration of the tested compound, which correlated with antiviral activity, was calculated as follows. % CPE reduction=[(D−ND)/(NI−ND)]×100, in which D (drug-treated) is the absorbance of drug-treated cells; ND (non drug-treated) is the absorbance of untreated infected cells; and NI (non-infected) is the absorbance of non-infected cells.
The EC50 represents the concentration of the drug that protects 50% of the cells from BVDV induced cytotoxicity (i.e., 50% CPE reduction). CC50 equals the concentration that affects the viability of 50% of the MDBK cells.

[7] = Bovine viral diarrhea virus isolates and strains, MDBK
[8] = MOI 0.01, combination experiments, compound alone, read-out: EC50 protection from BVDV-induced cytotoxicity, individual compound
[9] = read-out: EC50 (50% CPE reduction), MOI = 0.01
[10] = read-out: EC50 (50% CPE reduction), MOI = 0.1

`NC12CC3CC(CC(C3)C1)C2` [Amantadine, amantadine] showed an EC50 (BVDV [1]; [7]) of 400 µM.
In the case of Interferon-α2b, the “Average Interferon-α2b EC50” value (BVDV [2]; Castanospermine added 0 μM) is reported as 16 IU/mL, the “Average Interferon-α2b EC50” value (BVDV [2]; Castanospermine added 1.2 μM) is reported as 18 IU/mL and the “Average Interferon-α2b EC50” value (BVDV [2]; Castanospermine added 3.7 μM) is reported as 13 IU/mL. For the same molecule, the “Average Interferon-α2b EC50” value (BVDV [2]; Castanospermine added 11 μM) was 7 IU/mL, the “Average Interferon-α2b EC50” value (BVDV [2]; Castanospermine added 33 μM) was 1 IU/mL and the “Average Interferon-α2b EC50” value (BVDV [2]; Castanospermine added 100 μM) was less than 1 IU/mL. For the same molecule, the “EC50 protection from BVDV-induced cytotoxicity, individual compound” value (BVDV [2]; MOI 0.01, combination experiments, compound alone) was 19 ± 6 IU/mL and the “fold decrease of interferon-α2b EC50” value (BVDV [2]; at 11 μM of castanospermine) was roughly 2 fold.
For `NC(=O)c1ncn([C@@H]2O[C@H](CO)[C@@H](O)[C@H]2O)n1` [Ribavirin, reference compound], the EC50 (BVDV [3]) was 9.1 ± 6.3 µM, the EC50 (BVDV [2]; [8]) was 4 ± 2 µM and the “fold reduction of ribavirin EC50 (isobologram)” value (BVDV [2]; at about 10 IU/mL interferon-α2b) was greater than 6 fold. The CC50 [4] was 57 ± 34 µM, the CC50 ([5]; MDBK cells, Table 3, read-out: CC50) was 250 µM and the EC50 (BVDV strain NADL) was 2.4 ± 2.2 µM. The EC90 (BVDV strain NADL) was 4.9 ± 1.9 µM, the EC50 (BVDV [6]; [9]) was 4.4 ± 2 µM and the EC50 (BVDV [6]; [10]) was 9 ± 1 µM.
`O[C@H]1[C@H](O)[C@@H](O)CN2CC[C@H](O)[C@H]12` [Castanospermine, [1S-(1α,6β,7α,8β,8αβ)]-octahydro-1,6,7,8-indoli-zinetetrol] gave an EC50 (BVDV [3]) of 110 ± 82 µM, an EC50 (BVDV [2]; Interferon-α2b added 0 IU/mL, read-out: Average Castanospermine EC50) of 52 µM and an EC50 (BVDV [2]; Interferon-α2b added 0.7 IU/mL, read-out: Average Castanospermine EC50) of 39 µM. The EC50 (BVDV [2]; Interferon-α2b added 2.2 IU/mL, read-out: Average Castanospermine EC50) was 19 µM, the EC50 (BVDV [2]; Interferon-α2b added 6.7 IU/mL, read-out: Average Castanospermine EC50) was 12 µM and the EC50 (BVDV [2]; Interferon-α2b added 20 IU/mL, read-out: Average Castanospermine EC50) was 1 µM. For the same molecule, the EC50 (BVDV [2]; Interferon-α2b added 60 IU/mL, read-out: Average Castanospermine EC50) was less than 1 µM, the EC50 (BVDV [2]; [8]) was 59 ± 16 µM and the “dose-dependent reduction in EC50 of castanospermine” value (BVDV [2]; addition of increasing concentrations of interferon-α2b) was greater than 52 fold. The “fold reduction of castanospermine EC50 (isobologram)” value (BVDV [2]; at 10 IU/mL of interferon-α2b) was greater than 7 fold, the “fold decrease of castanospermine EC50” value (BVDV [2]; at 20 IU/mL interferon-α2b) was roughly 50 fold and the CC50 [4] was greater than 1000 µM. The CC50 [5] was greater than 1000 µM, the EC50 (BVDV [1]; [7]) was greater than 100 µM and the EC50 (BVDV strain NADL) was 14 ± 8 µM. The EC90 (BVDV strain NADL) was 83 ± 21 µM, the EC50 (BVDV [6]; [9]) was 61.5 ± 15.4 µM and the EC50 (BVDV [6]; [10]) was 177 ± 14.5 µM.
Molecule `CCCCN1C[C@H](O)[C@@H](O)[C@H](O)[C@H]1CO` [NB-DNJ, N-butyl-DNJ] has an EC50 (BVDV [1]; MOI 0.05, individual drug) greater than 500 µM.
